In patent EP0457910A1, “NOVEL GLUCOSAMINE DERIVATIVE AND LIPOSOME CONTAINING THE SAME AS MEMBRANE COMPONENT” (Japan Tobacco Inc., priority 1989, dated 1991):

System: 5-week-old ICR male mouse
Test: Acute toxicity No. 1: lethal toxicity test of the compounds, intraperitoneal
Type: in vivo
Conditions: for dead individuals during the observation period / general condition after the administration / weight: i.p., mice
From the text: Novel glucosamine derivative [I] according to the present invention was used to perform a lethal toxicity test with respect to mice. The following compounds were used as to-be-tested substances. • ① 6-O-palmitoyl-D-glucosamine methylglycoside • ② 6,6'-di-O-palmitoyl-D-glucosamino-(l→4)-β-D-glucosamine methylglycoside • ③ Stearylamine (Comparative Example)
Each of the above compounds was suspended in a 0.5%-CMC·Na solution to prepare a to-be-tested solution. 1.0 mℓ of each to-be-tested solution was administered intraperitoneally to a 5-week-old ICR male mouse, and a mouse mortality state was observed. Note that 1.0 mℓ of a 0.5%-CMC·Na solution was similarly administered to a solvent control group.

Row | SMILES | Total Number of dead individuals (450 ng/kg i.p.) | Number of dead individuals (450 ng/kg i.p., 1st day) | Number of dead individuals (450 ng/kg i.p., 2nd day) | Number of dead individuals (450 ng/kg i.p., 3rd day) | Number of dead individuals (450 ng/kg i.p., Day of test) | Total Number of dead individuals (900 ng/kg i.p.) | Number of dead individuals (900 ng/kg i.p., 1st day) | Number of dead individuals (900 ng/kg i.p., 2nd day) | Number of dead individuals (900 ng/kg i.p., 3rd day) | Number of dead individuals (900 ng/kg i.p., Day of test) | dead individuals during the observation period | general condition after the administration | weight | further results
1 | CCCCCCCCCCCCCCCC(=O)OC[C@H]1O[C@@H](O[C@H]2[C@H](O)[C@@H](N)C(OC)O[C@@H]2COC(=O)CCCCCCCCCCCCCCC)[C@H](N)[C@@H](O)[C@@H]1O (stereo partly drawn) [compound ②, 6,6'-di-O-palmitoyl-D-glucosamino-(1→4)-β-D-glucosamine methylglycoside] | 0/1 | 0/1 | 0/1 | 0/1 | 0/1 | 0/1 | 0/1 | 0/1 | 0/1 | 0/1 | no dead individual was found | no significant change was found | an increase in weight was found as in the control | –
2 | CCCCCCCCCCCCCCCC(=O)OC[C@H]1OC(OC)[C@H](N)[C@@H](O)[C@@H]1O (stereo partly drawn) [compound ①, 6-O-palmitoyl-D-glucosamine methylglycoside] | 0/2 | 0/2 | 0/2 | 0/2 | 0/2 | 0/2 | 0/2 | 0/2 | 0/2 | 0/2 | no dead individual was found | no significant change was found | an increase in weight was found as in the control | –
3 | CCCCCCCCCCCCCCCCCCN [compound ③, Stearylamine, reference compound] | – | – | – | – | – | – | – | – | – | – | – | a decrease in spontaneous motion was found immediately after the administration | the weight was gradually decreased to result in death | Total Number of dead individuals (250 ng/kg i.p.): 1/5; Number of dead individuals (250 ng/kg i.p., 1st day): 0/5; Number of dead individuals (250 ng/kg i.p., 2nd day): 0/5; Number of dead individuals (250 ng/kg i.p., 3rd day): 1/5; Number of dead individuals (250 ng/kg i.p., Day of test): 0/5; Total Number of dead individuals (500 ng/kg i.p.): 3/5; Number of dead individuals (500 ng/kg i.p., 1st day): 0/5; Number of dead individuals (500 ng/kg i.p., 2nd day): 3/5; Number of dead individuals (500 ng/kg i.p., 3rd day): 0/2; Number of dead individuals (500 ng/kg i.p., Day of test): 0/5; Total Number of dead individuals (1,500 ng/kg i.p.): 4/4; Number of dead individuals (1,500 ng/kg i.p., 1st day): 0/4; Number of dead individuals (1,500 ng/kg i.p., 2nd day): 1/4; Number of dead individuals (1,500 ng/kg i.p., 3rd day): 3/3; Number of dead individuals (1,500 ng/kg i.p., Day of test): 0/4
